Data published in ChEMBL document CHEMBL1130686, “A new series of C3-aza carbocyclic influenza neuraminidase inhibitors: synthesis and inhibitory activity” (Bioorg Med Chem Lett, 1998).

Target: Neuraminidase (Influenza A virus (A/Puerto Rico/8/1934(H1N1)), UniProt P03468)
Assay: Inhibition of neuraminidase of influenza A

Row | SMILES | IC50
1 | CCC(CC)N(C)[C@@H]1C=C(C(=O)O)C[C@H](N)[C@H]1NC(C)=O | 6 nM
2 | CCCN(CC)[C@@H]1C=C(C(=O)O)C[C@H](N)[C@H]1NC(C)=O | 90 nM
3 | CCC(=O)N[C@@H]1C=C(C(=O)O)C[C@H](N)[C@H]1NC(C)=O | 2700 nM
4 | CCCN[C@@H]1C=C(C(=O)O)C[C@H](N)[C@H]1NC(C)=O | 200 nM
5 | CCC(CC)N[C@@H]1C=C(C(=O)O)C[C@H](N)[C@H]1NC(C)=O | 11 nM
6 | CCCCN(C)[C@@H]1C=C(C(=O)O)C[C@H](N)[C@H]1NC(C)=O | 180 nM
7 | CCCN(CCC)[C@@H]1C=C(C(=O)O)C[C@H](N)[C@H]1NC(C)=O | 12 nM
8 | CC(=O)N[C@H]1[C@H](N(C)C2CCCCC2)C=C(C(=O)O)C[C@@H]1N | 200 nM
9 | CCCCN(CC)[C@@H]1C=C(C(=O)O)C[C@H](N)[C@H]1NC(C)=O | 85 nM
10 | CC(=O)N[C@H]1[C@H](N(C)CCc2ccccc2)C=C(C(=O)O)C[C@@H]1N | 100 nM
11 | CCC(CC)C(=O)N[C@@H]1C=C(C(=O)O)C[C@H](N)[C@H]1NC(C)=O | 4000 nM
12 | CC(=O)N[C@@H]1[C@@H](N)CC(C(=O)O)=C[C@H]1NC(=O)C(C)C | 6400 nM
